Test results from ChEMBL document CHEMBL1201862, “PubChem BioAssay data set” (2004).
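Five compound concentrations were applied to cells in 96-well plates for 48 hours; endpoints were derived by simple linear interpolation of the resulting dose-response curve. Here, GI50 denotes the concentration required for 50% inhibition of growth.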 The source made the active and inactive calls. Rule as the data show it: active = GI50 up to about 1.1 µM and inactive = higher.

Legend:
Assay in all cases: inhibition of tumour cell growth, NCI panel, 48 h
SN12C = tested on: SN12C
PC-3 = tested on: PC-3
HCT-116 = tested on: HCT-116
MOLT-4 = tested on: MOLT-4
A498 = tested on: A498
UO-31 = tested on: UO-31
SK-MEL-2 = tested on: SK-MEL-2
SK-MEL-28 = tested on: SK-MEL-28
DU-145 = tested on: DU-145
COLO 205 = tested on: COLO 205
UACC-62 = tested on: UACC-62
ACHN = tested on: ACHN
SNB-19 = tested on: SNB-19
NCI-H226 = tested on: NCI-H226
Malme-3M = tested on: Malme-3M
NCI-H23 = tested on: NCI-H23
NCI/ADR-RES = tested on: NCI/ADR-RES
HL-60 = tested on: HL-60
NCI-H460 = tested on: NCI-H460
786-0 = tested on: 786-0

Structure (SMILES) | GI50 (SN12C) | GI50 (PC-3) | GI50 (HCT-116) | GI50 (MOLT-4) | GI50 (A498) | GI50 (UO-31) | GI50 (SK-MEL-2) | GI50 (SK-MEL-28) | GI50 (DU-145) | GI50 (COLO 205) | GI50 (UACC-62) | GI50 (ACHN) | GI50 (SNB-19) | GI50 (NCI-H226) | GI50 (Malme-3M) | GI50 (NCI-H23) | GI50 (NCI/ADR-RES) | GI50 (HL-60) | GI50 (NCI-H460) | GI50 (786-0)
CCOc1cc2c(cc1O)/C(=N\N)C[C@@H]1[C@@H]2CC[C@]2(C)[C@@H](O)CC[C@@H]12 | 9.12 µM (inactive) | 6.34 µM (inactive) | 2.34 µM (inactive) | 4.27 µM (inactive) | 12.4 µM (inactive) | 3.96 µM (inactive) | 4.38 µM (inactive) | 5.66 µM (inactive) | 8.73 µM (inactive) | 27.4 µM (inactive) | 0.879 µM (active) | 5.61 µM (inactive) | 3.87 µM (inactive) | 4.76 µM (inactive) | 1.54 µM (inactive) | 7.01 µM (inactive) | 3.86 µM (inactive) | 0.337 µM (active) | 2.99 µM (inactive) | 4.48 µM (inactive)
O=C1c2ccccc2-c2ccc(O)cc21 | 15.7 µM (inactive) | 17.2 µM (inactive) | 45.6 µM (inactive) | 16.1 µM (inactive) | 21.5 µM (inactive) | 17.2 µM (inactive) | 21.5 µM (inactive) | 19.7 µM (inactive) | 20.1 µM (inactive) | 19.7 µM (inactive) | 15.3 µM (inactive) | 16.6 µM (inactive) | 23.9 µM (inactive) | 26.3 µM (inactive) | 23.4 µM (inactive) | 16.9 µM (inactive) | 31.8 µM (inactive) | 23.2 µM (inactive) | 20.1 µM (inactive) | 36.1 µM (inactive)
C=CCC1C2CCC(O[Si](C(C)C)(C(C)C)C(C)C)(C(C(=O)OC)C2)C1O (centres undefined) | > 100 µM (inactive) | 67.5 µM (inactive) | 19.5 µM (inactive) | 35.2 µM (inactive) | > 100 µM (inactive) | 49.2 µM (inactive) | 41.9 µM (inactive) | 65.8 µM (inactive) | > 100 µM (inactive) | > 100 µM (inactive) | 55.2 µM (inactive) | > 100 µM (inactive) | > 100 µM (inactive) | > 100 µM (inactive) | – | 23.5 µM (inactive) | > 100 µM (inactive) | 13.3 µM (inactive) | 61.8 µM (inactive) | 17.2 µM (inactive)
CN(Cc1cnc2c(N)nc(N)nc2n1)c1ccc(Cl)cc1 | > 100 µM (inactive) | 65.5 µM (inactive) | – | > 100 µM (inactive) | 31.7 µM (inactive) | 47.1 µM (inactive) | 29 µM (inactive) | – | > 100 µM (inactive) | > 100 µM (inactive) | 24.4 µM (inactive) | 26.6 µM (inactive) | 33.3 µM (inactive) | 1.91 µM (inactive) | > 100 µM (inactive) | 34 µM (inactive) | 16.2 µM (inactive) | > 100 µM (inactive) | 42.5 µM (inactive) | –
COc1cc(C2c3cc4c(cc3OC(NCc3ccccc3)C2C)OCO4)cc(OC)c1OC (centres undefined) | 0.697 µM (active) | 0.24 µM (active) | 0.364 µM (active) | 0.653 µM (active) | 0.667 µM (active) | 0.504 µM (active) | 0.675 µM (active) | 4.04 µM (inactive) | 0.406 µM (active) | 0.252 µM (active) | 0.409 µM (active) | 1.01 µM (active) | 0.452 µM (active) | 0.853 µM (active) | 0.254 µM (active) | 0.417 µM (active) | 0.258 µM (active) | 0.277 µM (active) | 0.394 µM (active) | 0.357 µM (active)
CC[C@@]1(O)C[C@H](OC2CC(N(C)C)C(O)C(C)O2)c2c(O)c3c(c(O)c2[C@H]1OC1CC(N(C)C)C(O)C(C)O1)C(=O)c1cccc(O)c1C3=O (some centres undefined) | 0.054 µM (active) | 0.0361 µM (active) | 0.0247 µM (active) | 0.0817 µM (active) | 0.012 µM (active) | 0.0275 µM (active) | 0.0227 µM (active) | 0.0373 µM (active) | 0.182 µM (active) | 0.0321 µM (active) | 0.0253 µM (active) | – | 0.04 µM (active) | 0.0219 µM (active) | 0.0424 µM (active) | 0.057 µM (active) | 0.177 µM (active) | 0.0869 µM (active) | 0.018 µM (active) | 0.0196 µM (active)
COc1cc([N+](=O)[O-])c(S(=O)(=O)O)cc1N | > 100 µM (inactive) | > 100 µM (inactive) | > 100 µM (inactive) | > 100 µM (inactive) | > 100 µM (inactive) | > 100 µM (inactive) | > 100 µM (inactive) | > 100 µM (inactive) | > 100 µM (inactive) | > 100 µM (inactive) | > 100 µM (inactive) | > 100 µM (inactive) | > 100 µM (inactive) | > 100 µM (inactive) | – | > 100 µM (inactive) | > 100 µM (inactive) | > 100 µM (inactive) | > 100 µM (inactive) | > 100 µM (inactive)
Brc1ccc2c(-c3csc(-c4c[nH]c5cc(Br)ccc45)n3)c[nH]c2c1 | 37 µM (inactive) | 23.7 µM (inactive) | 14.5 µM (inactive) | 12.1 µM (inactive) | 37.1 µM (inactive) | 55.3 µM (inactive) | > 83 µM (inactive) | 46.6 µM (inactive) | 19.5 µM (inactive) | 26.8 µM (inactive) | 40.5 µM (inactive) | 44 µM (inactive) | 21.3 µM (inactive) | 30.5 µM (inactive) | 28.4 µM (inactive) | 18.5 µM (inactive) | 16 µM (inactive) | 5.69 µM (inactive) | 18.9 µM (inactive) | 22 µM (inactive)
CCN1CCC(O)(c2ccc([N+](=O)[O-])cc2)C(C(=O)c2ccc([N+](=O)[O-])cc2)C1 (centres undefined) | 21.1 µM (inactive) | 26.6 µM (inactive) | 17.2 µM (inactive) | 19.3 µM (inactive) | 22 µM (inactive) | 17.3 µM (inactive) | 43.2 µM (inactive) | 16.6 µM (inactive) | 17.7 µM (inactive) | 13.8 µM (inactive) | 18.2 µM (inactive) | 17.8 µM (inactive) | 95.1 µM (inactive) | 26.3 µM (inactive) | 20.1 µM (inactive) | 19.5 µM (inactive) | 53.8 µM (inactive) | 41.5 µM (inactive) | 28.8 µM (inactive) | 15.5 µM (inactive)
CSc1nn(C)cc2ncnc1-2 | > 100 µM (inactive) | > 100 µM (inactive) | > 100 µM (inactive) | > 100 µM (inactive) | > 100 µM (inactive) | > 100 µM (inactive) | > 100 µM (inactive) | > 100 µM (inactive) | > 100 µM (inactive) | > 100 µM (inactive) | > 100 µM (inactive) | > 100 µM (inactive) | > 100 µM (inactive) | > 100 µM (inactive) | – | > 100 µM (inactive) | > 100 µM (inactive) | > 100 µM (inactive) | > 100 µM (inactive) | > 100 µM (inactive)
Cn1cnc(N2CCCC2)c(C#N)c1=S | > 100 µM (inactive) | > 100 µM (inactive) | > 100 µM (inactive) | > 100 µM (inactive) | > 100 µM (inactive) | 23.2 µM (inactive) | > 100 µM (inactive) | > 100 µM (inactive) | > 100 µM (inactive) | > 100 µM (inactive) | > 100 µM (inactive) | > 100 µM (inactive) | > 100 µM (inactive) | > 100 µM (inactive) | > 100 µM (inactive) | > 100 µM (inactive) | > 100 µM (inactive) | > 100 µM (inactive) | > 100 µM (inactive) | > 100 µM (inactive)
C/C(=N\Nc1ccccc1)C(CN(C)C)C(c1ccccc1)c1c(O)c2ccccc2oc1=O (centres undefined) | > 100 µM (inactive) | > 100 µM (inactive) | > 100 µM (inactive) | 42.1 µM (inactive) | > 100 µM (inactive) | > 100 µM (inactive) | > 100 µM (inactive) | > 100 µM (inactive) | > 100 µM (inactive) | > 68.9 µM (inactive) | > 100 µM (inactive) | > 100 µM (inactive) | > 100 µM (inactive) | > 100 µM (inactive) | > 83 µM (inactive) | > 100 µM (inactive) | > 100 µM (inactive) | > 59.8 µM (inactive) | > 100 µM (inactive) | > 100 µM (inactive)
NCCCn1c2ccccc2c2c3c(c4c(c21)CCC(O)CC4)C(=O)NC3=O (centres undefined) | 2.42 µM (inactive) | 3.48 µM (inactive) | 1.88 µM (inactive) | 1.53 µM (inactive) | 9.38 µM (inactive) | 6.27 µM (inactive) | 10.4 µM (inactive) | 0.92 µM (active) | 3.7 µM (inactive) | – | 4.12 µM (inactive) | 1.79 µM (inactive) | – | 2.74 µM (inactive) | 2.14 µM (inactive) | 2.45 µM (inactive) | 13 µM (inactive) | 9.12 µM (inactive) | 2.06 µM (inactive) | 2.92 µM (inactive)
CC(C)[Si](OC1=C(C(=O)N(C)c2cccc(Cl)c2)CCCC1)(C(C)C)C(C)C | – | 8.61 µM (inactive) | – | 10.4 µM (inactive) | 16.9 µM (inactive) | 14.5 µM (inactive) | 15.5 µM (inactive) | 13.6 µM (inactive) | 11.7 µM (inactive) | 15.1 µM (inactive) | 14.7 µM (inactive) | 16.2 µM (inactive) | 16.6 µM (inactive) | 15.8 µM (inactive) | 11.7 µM (inactive) | 11.7 µM (inactive) | 12.6 µM (inactive) | 5.61 µM (inactive) | 14.1 µM (inactive) | 18.3 µM (inactive)
